Measurements from PMC9891166, “Derivatives of 4-methyl-1,2,3-benzoxathiazine 2,2-dioxide as selective inhibitors of human carbonic anhydrases IX and XII over the cytosolic isoforms I and II” (Journal of Enzyme Inhibition and Medicinal Chemistry, 2023).
Like-named read-outs stand apart in the source and are kept apart here.

How the values were obtained:
Experiment in all cases: stopped-flow CO2 hydration assay
Format in all cases: biochemical
[1] = molecular target: T1, hCA I (Homo sapiens, UniProt P00915); conditions: read-out: KI (nM)^a,b / hCA I
T1 construct: gene CA1; recombinant, obtained in-house as reported earlier; cytosolic
From the text: stopped-flow CO2 hydration assay on hCA I

[2] = molecular target: T2, hCA II (Homo sapiens, UniProt P00918); conditions: read-out: KI (nM)^a,b / hCA II
T2 construct: gene CA2; recombinant, obtained in-house as reported earlier; cytosolic
From the text: stopped-flow CO2 hydration assay on hCA II

[3] = molecular target: T2, hCA II; conditions: read-out: KI (nM)^a,b / hCA I

T1 sequence (P00915 2-261): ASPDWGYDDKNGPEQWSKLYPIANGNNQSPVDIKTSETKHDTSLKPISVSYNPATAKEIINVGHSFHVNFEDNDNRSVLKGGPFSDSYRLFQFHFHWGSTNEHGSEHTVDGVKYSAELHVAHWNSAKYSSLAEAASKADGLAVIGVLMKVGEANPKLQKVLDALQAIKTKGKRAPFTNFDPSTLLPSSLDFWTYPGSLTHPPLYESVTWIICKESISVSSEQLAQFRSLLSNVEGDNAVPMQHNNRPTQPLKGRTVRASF

SMILES | Ki [1] | Ki [2] | Ki [3]
CC1=NS(=O)(=O)Oc2cc(F)ccc21 [2h, 7-Fluoro-4-methyl-1,2,3-benzoxathiazine 2,2-dioxide] | 10500 nM | 284 nM | 
CC1=NS(=O)(=O)Oc2ccc(F)cc21 [2c, 6-Fluoro-4-methyl-1,2,3-benzoxathiazine 2,2-dioxide] | 12400 nM | 229 nM | 
COc1cccc2c1C(C)=NS(=O)(=O)O2 [2a, 5-Methoxy-4-methyl-1,2,3-benzoxathiazine 2,2-dioxide] | > 100000 nM |  | > 100000 nM
CC1=NS(=O)(=O)Oc2cc(Br)ccc21 [2j, 7-Bromo-4-methyl-1,2,3-benzoxathiazine 2,2-dioxide] | > 100000 nM | 11500 nM | 
CC1=NS(=O)(=O)Oc2cc(C)ccc21 [2f, 4,7-Dimethyl-1,2,3-benzoxathiazine 2,2-dioxide] | 33200 nM | 788 nM | 
COc1ccc2c(c1)OS(=O)(=O)N=C2C [2g, 7-Methoxy-4-methyl-1,2,3-benzoxathiazine 2,2-dioxide] | 24900 nM | 559 nM | 
CC1=NS(=O)(=O)Oc2ccc(Cl)cc21 [2d, 6-Chloro-4-methyl-1,2,3-benzoxathiazine 2,2-dioxide] | 45700 nM | 634 nM | 
CC1=NS(=O)(=O)Oc2ccc(C)cc21 [2b, 4,6-Dimethyl-1,2,3-benzoxathiazine 2,2-dioxide] | 21000 nM | 457 nM | 
CC1=NS(=O)(=O)Oc2ccc(Br)cc21 [2e, 6-Bromo-4-methyl-1,2,3-benzoxathiazine 2,2-dioxide] | > 100000 nM | 5570 nM | 
CC1=NS(=O)(=O)Oc2cc(Cl)ccc21 [2i, 7-Chloro-4-methyl-1,2,3-benzoxathiazine 2,2-dioxide] | 82100 nM | 1660 nM | 

More lines, now with the values ahead:

Ki [1] | Ki [2] | Ki [3] | SMILES
> 100000 nM | 5370 nM |  | CC1=NS(=O)(=O)Oc2cc(-c3ccc(F)cc3)ccc21 [5g, 7–(4-Fluorophenyl)-4-methyl-1,2,3-benzoxathiazine 2,2-dioxide]
> 100000 nM | 4530 nM |  | CC1=NS(=O)(=O)Oc2ccc(-c3ccc(Cl)c(Cl)c3)cc21 [5d, 6–(3,4-Dichlorophenyl)-4-methyl-1,2,3-benzoxathiazine 2,2-dioxide]
24500 nM | 1530 nM |  | CC1=NS(=O)(=O)Oc2ccc(-c3ccc(F)cc3)cc21 [5b, 6–(4-Fluorophenyl)-4-methyl-1,2,3-benzoxathiazine 2,2-dioxide]
> 100000 nM | 6780 nM |  | CCOC(=O)c1ccc(-c2ccc3c(c2)OS(=O)(=O)N=C3C)cc1 [5j, Ethyl 4–(4-methyl-2,2-dioxido-1,2,3-benzoxathiazin-7-yl)benzoate]
> 100000 nM | 10000 nM |  | CC1=NS(=O)(=O)Oc2cc(-c3ccc(Cl)c(Cl)c3)ccc21 [5i, 7–(3,4-Dichlorophenyl)-4-methyl-1,2,3-benzoxathiazine 2,2-dioxide]
60600 nM | 936 nM |  | CC1=NS(=O)(=O)Oc2ccc(-c3ccccc3)cc21 [5a, 4-Methyl-6-phenyl-1,2,3-benzoxathiazine 2,2-dioxide]
19600 nM | 8250 nM |  | CCOC(=O)c1ccc(-c2ccc3c(c2)C(C)=NS(=O)(=O)O3)cc1 [5e, Ethyl 4–(4-methyl-2,2-dioxido-1,2,3-benzoxathiazin-6-yl)benzoate]
> 100000 nM | 2360 nM |  | CC1=NS(=O)(=O)Oc2cc(-c3ccccc3)ccc21 [5f, 4-Methyl-7-phenyl-1,2,3-benzoxathiazine 2,2-dioxide]
70500 nM | 7120 nM |  | COc1ccc(-c2ccc3c(c2)C(C)=NS(=O)(=O)O3)cc1 [5c, 6–(4-Methoxyphenyl)-4-methyl-1,2,3-benzoxathiazine 2,2-dioxide]
> 100000 nM | 3170 nM |  | COc1ccc(-c2ccc3c(c2)OS(=O)(=O)N=C3C)cc1 [5h, 7–(4-Methoxyphenyl)-4-methyl-1,2,3-benzoxathiazine 2,2-dioxide]
